# According to publication PMC8725448 (Journal of Cannabis Research, 2022):
# Entries after “also recorded” stand apart in the source; their conditions may differ. Read-outs that look alike come from different tables or passages of the source.
# Key:
# [1] = tested on: hyperthermia-induced seizures in Scn1a^+/- mice; test: Hyperthermia-induced seizures in Scn1a+/- mouse model of Dravet syndrome; assay type: in vivo
# Method: (§1) Hyperthermia-induced seizure experiments were conducted on male and female Scn1a^+/- mice at P14-16 as previously described (Hawkins et al. [2017]). No significant sex differences were observed so males and females were combined across groups. Briefly, for CBGA methyl ester experimental animals a RET-3 rectal temperature probe was inserted 30 min after i.p. injections of vehicle or CBGA methyl ester. Mice acclimated to the probe for 5 min before hyperthermia protocol began. Olivetolic acid experimental animals acclimated to the rectal temperature probe for 5 min then received an i.p. injection of vehicle or olivetolic acid immediately before the hyperthermia protocol was initiated. Mouse core body temperature was elevated 0.5°C every 2 min until the onset of first clonic convulsion with loss of posture or until 42.5°C was reached. The dose range (10, 30, or 100 mg/kg) was chosen to provide a point of direct comparison to CBGA, which is anticonvulsant at 30 and 100 mg/kg. Seizure threshold temperatures were compared in GraphPad Prism 8.2 (LaJolla, USA) using Mantel-Cox logrank test and p < 0.05 was considered statistically significant. Following the hyperthermia-induced seizure protocol, the plasma samples were isolated as described for the pharmacokinetic analysis from a cohort of experimental mice.
# human GPR55 = target: T1, human GPR55 (Homo sapiens, UniProt Q9Y2T6); test: GPR55 pERK assay (AlphaScreen SureFire Phospho-ERK1/2); assay type: cell-based; settings: 10 μM; LPI at EC80; HEK293 cells expressing human GPR55
# T1 construct: expressed in transfected cells; host or cells: HEK293
# Method: ERK phosphorylation (pERK) was detected using the AlphaScreen® SureFire® Phospho-ERK1/2 assay (Perkin Elmer; Waltham, USA) as previously described (Anderson et al. [2021b]). Briefly, the human embryonic kidney (HEK) 293 cells stably expressing human GPR55 in L-15 media were plated (110,000/well) into a Corning CellBIND (Corning Inc; Corning, USA) clear, flat-bottomed 96-well plate and incubated 20–24 h at 37°C in ambient CO2. Media was aspirated, 50 μL phenol red-free DMEM/F-12 was added to each well and incubated for 2–3 h at 37°C in a humidified 5% CO2 atmosphere. Compounds (10 μM in phenol red-free DMEM/F-12) were added and incubated for 20 min before media was aspirated and lysis buffer was added. Lysates (5 μL) were incubated with reaction mixture (7 μL) for 3.5 h at room temperature. A CLARIOstar plate reader (BMG Labtech; Offenburg, GER) was used to take fluorescence readings over 740 msec (excitation 680 nm, emission 520–620 nm). Fluorescence readings were normalized to those of 4 μM LPI, the endogenous GPR55 agonist. […] Final DMSO concentrations were ≤ 0.2%. Statistical comparisons were made in GraphPad Prism using one-way ANOVA followed by Dunnett’s post hoc and p < 0.05 was considered statistically significant.
# [2] = Plasma concentrations in experimental Scn1a+/- mice after hyperthermia protocol; assay type: in vivo, mouse
# Method: (§2) The plasma and brain samples were prepared for LC-MS/MS analysis as previously described (Anderson et al. [2019b], [2020]). Briefly, acetonitrile was used to precipitate proteins and extract CBGA methyl ester and olivetolic acid from the biological matrices. The brain samples were additionally filtered through Amicon Ultracel 3K (Merck-Millipore; Burlington, USA) filtration devices. The plasma and brain samples underwent supported-liquid extraction with methyl tert-butyl ether using Biotage Isolute SLE+ columns (Uppsala, SWE) and were then evaporated to dryness with N2. Residues were reconstituted in actetonitrile and 0.1% formic acid in water (1:1, v/v) for analysis using a Shimadzu Nexera ultra-HPLC coupled to a Shimadzu 8030 triple quadrupole mass spectrometer (Shimadzu Corp.; Kyoto, JPN). The mass spectrometer was operated in positive electrospray ionization mode for CBGA methyl ester and negative electrospray ionization mode for olivetolic acid with multiple reaction monitoring and the following mass transition pairs (m/z): 375.20 > 343.25, 375.20 > 219.10 and 375.20 > 251.15 (CBGA-methylester) and 223.25 > 179.25 (olivetolic acid). Quantification of analytes in the plasma and brain samples was achieved by comparing samples to standards prepared with known amounts of compound.
# as §1
# CaV3.3 = target: T2, CaV3.3 (Homo sapiens, UniProt Q9P0X4); test: Measurement of intracellular calcium, CaV3.3; assay type: cell-based; settings: 10 μM; HEK293 cells expressing human CaV3.3
# T2 construct: expressed in transfected cells; host or cells: Flp-In T-REx HEK (tetracycline-induced)
# Method: Changes in intracellular calcium concentrations were measured in Flp-In™ T-REx™ HEK stably expressing either CaV3.1, CaV3.2, or CaV3.3 using Calcium 5 dye (Molecular Devices; Sunnyvale, USA) as previously described (Bladen et al. [2021]). Briefly, cells (120,000/well) were plated into a black, clear-bottomed poly-D-lysine coated, 96-well plate in the presence of 2 μg/mL tetracycline to induce channel expression and incubated overnight at 37°C in ambient CO2. Calcium 5 dye was diluted in HEPES-buffered low potassium Hanks Balanced Salt Solution (HBSS) at 50% of manufacturer’s recommendation. Dye solution containing probenecid (2.5 mM) was added and incubated for 60 min at 37°C in ambient CO2. Compounds were prepared as stock solutions in DMSO and diluted in HBSS with 0.01% bovine serum albumin. Compounds were applied for 5 min, then 10 mM CaCl2 was added. A FlexStation 3 Microplate reader (Molecular Devices; San Jose, USA) was used to take fluorescence readings every 2 s (excitation 485 nm, emission 525 nm). Baseline recordings were taken as the average fluorescence over 20 s preceding CaCl2 addition. Changes in fluorescence were measured as the maximal increase in fluorescence from baseline following CaCl2 addition and normalized to the response of vehicle. CaCl2 addition produced no effect in non-induced cells (Supplemental Fig. 2). Final drug concentrations had ≤ 0.1% DMSO. […]
# [3] = Pharmacokinetic analysis in mouse plasma and brain after i.p. injection; assay type: in vivo; settings: for Kp: brain/plasma; for Kp / Cmax / AUC / Tmax / half-life: 10 mg/kg, mouse; for Kp / Cmax: i.p.
# Method: Wildtype mice (postnatal day 21-28, P21-28) received an i.p. injection of 10 mg/kg CBGA methyl ester or olivetolic acid. At selected time points (15–120 min) mice were anesthetized with isoflurane, whole blood was collected by cardiac puncture and brains were harvested. The plasma was isolated by centrifugation and samples were stored at −80°C until assayed. Concentrations in the plasma and brain samples at each time point were averaged, and pharmacokinetic parameters were calculated by noncompartmental analysis as previously described (Hawkins et al. [2017]).
# as §2
# [4] = intraperitoneal, read-out: brain penetration
# [5] = ip, from AUC values, read-out: Brain-plasma ratio
# [6] = ip, brain, converted from ng/mg brain assuming density of 1 g/mL, read-out: Cmax
# T1 sequence (Q9Y2T6 whole entry): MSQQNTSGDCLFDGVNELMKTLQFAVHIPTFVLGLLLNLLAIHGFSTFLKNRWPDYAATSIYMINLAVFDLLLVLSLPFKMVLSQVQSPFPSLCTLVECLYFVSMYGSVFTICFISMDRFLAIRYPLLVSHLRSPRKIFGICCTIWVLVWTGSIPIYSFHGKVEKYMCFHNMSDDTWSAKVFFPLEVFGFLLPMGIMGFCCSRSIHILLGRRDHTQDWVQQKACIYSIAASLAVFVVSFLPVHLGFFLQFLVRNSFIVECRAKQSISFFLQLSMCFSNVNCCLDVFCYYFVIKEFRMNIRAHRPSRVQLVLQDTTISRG
# T2 sequence (Q9P0X4 whole entry): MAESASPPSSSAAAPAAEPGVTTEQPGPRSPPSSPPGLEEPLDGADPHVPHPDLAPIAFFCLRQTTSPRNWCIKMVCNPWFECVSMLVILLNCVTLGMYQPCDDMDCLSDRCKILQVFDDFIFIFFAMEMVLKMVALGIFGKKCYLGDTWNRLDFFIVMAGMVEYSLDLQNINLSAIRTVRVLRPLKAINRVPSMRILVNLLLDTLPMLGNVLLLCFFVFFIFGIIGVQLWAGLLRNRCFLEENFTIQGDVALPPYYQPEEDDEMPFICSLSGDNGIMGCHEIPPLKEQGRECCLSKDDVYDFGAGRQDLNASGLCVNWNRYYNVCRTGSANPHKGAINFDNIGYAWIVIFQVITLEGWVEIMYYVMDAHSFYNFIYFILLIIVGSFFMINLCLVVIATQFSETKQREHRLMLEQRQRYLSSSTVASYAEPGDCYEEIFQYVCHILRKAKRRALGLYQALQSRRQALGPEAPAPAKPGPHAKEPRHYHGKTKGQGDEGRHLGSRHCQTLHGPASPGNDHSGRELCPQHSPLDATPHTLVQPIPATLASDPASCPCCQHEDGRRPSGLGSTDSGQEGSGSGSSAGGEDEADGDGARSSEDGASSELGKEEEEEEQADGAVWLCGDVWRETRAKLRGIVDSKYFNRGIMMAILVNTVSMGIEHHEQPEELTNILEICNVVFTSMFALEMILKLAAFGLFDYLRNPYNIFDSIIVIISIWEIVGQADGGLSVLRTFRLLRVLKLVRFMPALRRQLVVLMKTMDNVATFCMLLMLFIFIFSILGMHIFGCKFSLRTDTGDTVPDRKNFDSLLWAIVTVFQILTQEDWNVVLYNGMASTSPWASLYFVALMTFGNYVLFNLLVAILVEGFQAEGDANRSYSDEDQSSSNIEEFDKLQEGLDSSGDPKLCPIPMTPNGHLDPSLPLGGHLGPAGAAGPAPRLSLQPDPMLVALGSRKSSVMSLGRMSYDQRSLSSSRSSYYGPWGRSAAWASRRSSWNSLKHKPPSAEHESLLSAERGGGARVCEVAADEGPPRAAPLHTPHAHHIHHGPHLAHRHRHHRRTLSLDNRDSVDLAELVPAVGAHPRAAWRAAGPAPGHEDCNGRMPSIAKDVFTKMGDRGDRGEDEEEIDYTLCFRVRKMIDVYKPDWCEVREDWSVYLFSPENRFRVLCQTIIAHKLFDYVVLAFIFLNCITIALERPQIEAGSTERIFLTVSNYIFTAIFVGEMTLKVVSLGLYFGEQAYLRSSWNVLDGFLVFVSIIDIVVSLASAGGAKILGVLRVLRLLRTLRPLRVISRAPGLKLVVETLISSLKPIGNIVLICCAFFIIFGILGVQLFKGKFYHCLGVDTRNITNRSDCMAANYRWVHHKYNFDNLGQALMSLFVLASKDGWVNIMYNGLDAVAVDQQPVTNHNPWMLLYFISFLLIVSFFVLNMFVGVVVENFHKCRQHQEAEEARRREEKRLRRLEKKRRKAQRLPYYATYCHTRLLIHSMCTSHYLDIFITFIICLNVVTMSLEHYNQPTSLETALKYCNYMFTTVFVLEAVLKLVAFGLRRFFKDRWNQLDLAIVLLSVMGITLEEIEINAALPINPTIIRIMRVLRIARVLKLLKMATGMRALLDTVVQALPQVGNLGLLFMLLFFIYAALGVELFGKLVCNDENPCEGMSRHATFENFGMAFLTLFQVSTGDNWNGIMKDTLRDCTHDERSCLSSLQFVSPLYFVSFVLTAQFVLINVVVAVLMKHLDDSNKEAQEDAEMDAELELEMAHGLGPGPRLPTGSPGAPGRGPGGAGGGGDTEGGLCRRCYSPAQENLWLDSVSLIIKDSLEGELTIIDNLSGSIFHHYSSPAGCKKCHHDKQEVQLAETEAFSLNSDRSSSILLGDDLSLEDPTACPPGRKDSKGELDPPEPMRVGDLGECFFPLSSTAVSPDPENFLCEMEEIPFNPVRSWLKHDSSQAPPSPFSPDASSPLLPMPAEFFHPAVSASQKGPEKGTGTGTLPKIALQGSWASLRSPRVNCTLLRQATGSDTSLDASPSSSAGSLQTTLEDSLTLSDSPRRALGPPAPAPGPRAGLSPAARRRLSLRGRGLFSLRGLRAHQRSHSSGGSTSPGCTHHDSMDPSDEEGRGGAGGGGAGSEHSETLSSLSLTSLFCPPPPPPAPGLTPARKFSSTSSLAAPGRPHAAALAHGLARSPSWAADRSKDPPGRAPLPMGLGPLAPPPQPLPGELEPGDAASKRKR
Structure (SMILES),"effect on hyperthermia-induced seizures ([1]; any dose tested (10, 30, 100 mg/kg i.p.), Scn1a+/- mice P14-16)",inhibition of GPR55 activity (pERK relative to agonist LPI alone) (human GPR55),Plasma concentration ([2]; dose 10 mg/kg i.p.),Plasma concentration ([2]; dose 30 mg/kg i.p.),Plasma concentration ([2]; dose 100 mg/kg i.p.),inhibition of CaV3.3 (change in intracellular calcium relative to vehicle) (CaV3.3),"Kp [3, 4]","Kp [3, 5]",improvement of brain-plasma ratio over CBGA ([3]; compared with CBGA of Anderson et al. 2019b),"Cmax [3, 6]","AUC ([3]; ip, brain)","Tmax ([3]; ip, brain)","Cmax ([3]; ip, plasma, read-out: Cmax)","AUC ([3]; ip, plasma)","Tmax ([3]; ip, plasma)","half-life ([3]; brain, ip)","half-life ([3]; plasma, ip)","increase of GTCS temperature threshold ([1]; 100 mg/kg i.p., Scn1a+/- mice)","anticonvulsant effect (GTCS temperature threshold) ([1]; 100 mg/kg i.p., Scn1a+/- mice P14-16)",Cmax ([3]; brain)
CCCCCc1cc(O)c(C/C=C(\C)CCC=C(C)C)c(O)c1C(=O)OC [CBGA methyl ester],no effect; also recorded: ineffective,did not inhibit; also recorded: no effect,837 ± 212 ng/mL,4700 ± 600 ng/mL,6200 ± 600 ng/mL,Neither CBGA methyl ester nor olivetolic acid had any effect; also recorded: no effect,0.13,0.13,nearly a seven fold improvement,210 ± 30 ng/mL,367 ng·h/mL,30 min,1300 ± 300 ng/mL,2850 ng·h/mL,45 min,62 min,81 min,,,
CCCCCc1cc(O)cc(O)c1C(=O)O [Olivetolic acid],,did not inhibit; also recorded: ineffective,65000 ± 5000 ng/mL,89000 ± 12000 ng/mL,116000 ± 27000 ng/mL,Neither CBGA methyl ester nor olivetolic acid had any effect; also recorded: ineffective,0.01,0.01,,450 ± 60 ng/mL,217 ng·h/mL,15 min,65000 ± 4000 ng/mL,18400 ng·h/mL,15 min,< 15 min,< 15 min,approximately 0.4 °C,modest but significant anticonvulsant effect; also recorded: significantly increased the temperature threshold for GTCS,0.45 ± 0.06 ng/mg brain
